The results in this text go back to US8772480B2, “Inhibitors of PI3 kinase and/or mTOR” (priority 2009, dated 2014).

For test [1], the target named is PI3Kα (Homo sapiens (Human), UniProt P42336). To be noted: read-out: PI3Kα AlphaScreen ® Ki. On the technique in general: Bead proximity is the source of the signal in Alpha formats.
Test [2] relates to phosphorylation of Akt at Serine 473 in U87 MG cells. In words: cells. Particulars: Homo sapiens, U-87 MG, 2 h, read-out: U87Cell IC50, pAkt (Ser 473), U87 MG cells, two hours with compound.
Procedure: pAkt Aplhascreen (U87 Cell)
This assay was performed using U87 MG cells. […] The cells were maintained weekly using 0.05% Trypsin (Gibco) and replated in 150 mm TC—Treated Culture Dishes (Corning, Corning, N.Y.).
The first day of the assay, the adherent cells were trypsinized, media was added to the loose cells and cells were mixed to a homogenous mixture. 0.5 ml of the homogenous mixture was counted on the Beckman Coulter® Vi-CELL™ XR (Fullerton, Calif.). 50 frames of cells were counted and the number of viable cells was determined. The cells were then diluted to 0.25 million cells per ml, and centrifuged at 200 rcf for 5 minutes. The media was removed and the cells were reconstituted in fresh media for plating. The cells were plated at 20 μl per well on the PerkinElmer® FlexDrop PLUS in Low Volume 384 Well White Tissue Culture Plates (Corning) with a final cell density of 5K cells per well. The plates were incubated overnight at 37° Celsius, 5% CO2.
After two hours, the media in the cell plates was aspirated using the BioTek® ELx405HT plate washer (Winooski, Vt.) removing the majority of media and compound without disturbing the adherent U87 cells. […] The plates were then incubated at room temperature on a shaker for ten minutes. […] The AlphaScreen® reaction was added to the cell lysate at 6 μl per well using the PerkinElmer® FlexDrop PLUS. The plates were placed in a humid environment to reduce edge effects and incubated overnight at room temperature with restricted air flow in the dark.

Chain of PI3Kα (P42336 whole entry): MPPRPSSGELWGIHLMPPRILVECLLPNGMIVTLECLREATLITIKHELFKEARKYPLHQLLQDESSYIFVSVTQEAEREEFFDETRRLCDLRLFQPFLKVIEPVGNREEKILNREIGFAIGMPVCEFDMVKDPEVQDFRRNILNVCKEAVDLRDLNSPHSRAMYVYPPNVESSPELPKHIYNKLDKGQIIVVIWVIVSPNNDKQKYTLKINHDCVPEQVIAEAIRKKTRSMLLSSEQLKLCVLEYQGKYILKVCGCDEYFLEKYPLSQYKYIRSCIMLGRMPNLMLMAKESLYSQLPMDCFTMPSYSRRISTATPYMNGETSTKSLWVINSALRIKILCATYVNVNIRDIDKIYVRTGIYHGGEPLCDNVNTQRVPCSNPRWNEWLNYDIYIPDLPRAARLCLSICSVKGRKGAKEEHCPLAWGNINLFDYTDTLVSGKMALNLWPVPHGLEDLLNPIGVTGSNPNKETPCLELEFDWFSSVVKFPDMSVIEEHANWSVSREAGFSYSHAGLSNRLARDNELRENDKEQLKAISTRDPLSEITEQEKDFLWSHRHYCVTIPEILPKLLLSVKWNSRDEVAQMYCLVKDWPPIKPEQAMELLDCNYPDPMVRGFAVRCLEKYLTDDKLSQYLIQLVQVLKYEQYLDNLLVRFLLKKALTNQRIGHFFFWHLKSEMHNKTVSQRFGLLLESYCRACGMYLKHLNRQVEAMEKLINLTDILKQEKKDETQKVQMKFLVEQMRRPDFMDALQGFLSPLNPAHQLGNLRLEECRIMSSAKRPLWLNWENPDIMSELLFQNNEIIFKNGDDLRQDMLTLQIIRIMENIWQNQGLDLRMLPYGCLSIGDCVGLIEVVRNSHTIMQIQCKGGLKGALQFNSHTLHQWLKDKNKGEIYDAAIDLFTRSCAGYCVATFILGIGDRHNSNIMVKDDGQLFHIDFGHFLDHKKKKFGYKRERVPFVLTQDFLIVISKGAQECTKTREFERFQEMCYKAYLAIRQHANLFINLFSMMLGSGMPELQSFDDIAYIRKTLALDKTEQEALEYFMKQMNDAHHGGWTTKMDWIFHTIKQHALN
Chain of PI3Kα (P27986 whole entry partner): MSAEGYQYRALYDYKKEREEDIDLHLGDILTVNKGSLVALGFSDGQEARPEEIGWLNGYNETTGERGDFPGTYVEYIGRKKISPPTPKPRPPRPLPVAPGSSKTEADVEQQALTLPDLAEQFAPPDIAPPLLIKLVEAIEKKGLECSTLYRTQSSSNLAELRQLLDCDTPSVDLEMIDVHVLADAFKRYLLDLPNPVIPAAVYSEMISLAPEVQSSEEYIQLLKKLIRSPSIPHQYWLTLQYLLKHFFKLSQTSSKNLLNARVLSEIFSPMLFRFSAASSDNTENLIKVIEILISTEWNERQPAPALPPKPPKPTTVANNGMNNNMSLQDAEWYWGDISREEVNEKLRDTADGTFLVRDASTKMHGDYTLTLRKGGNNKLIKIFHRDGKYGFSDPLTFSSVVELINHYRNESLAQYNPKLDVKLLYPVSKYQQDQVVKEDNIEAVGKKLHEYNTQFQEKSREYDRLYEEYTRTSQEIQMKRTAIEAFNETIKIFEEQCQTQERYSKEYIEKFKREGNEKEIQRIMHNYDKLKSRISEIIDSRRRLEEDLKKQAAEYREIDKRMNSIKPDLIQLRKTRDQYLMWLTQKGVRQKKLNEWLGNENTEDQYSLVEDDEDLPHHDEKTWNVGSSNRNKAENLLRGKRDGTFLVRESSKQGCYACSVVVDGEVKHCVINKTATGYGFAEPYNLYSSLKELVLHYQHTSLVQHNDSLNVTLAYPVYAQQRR

Usually Ki stands for the dissociation constant of the complex between target and ligand, obtained from inhibition or displacement. The term IC50 denotes the point on the concentration scale where inhibition reaches its midpoint. Turning to `COc1ccc(Nc2ncc(N3CC[C@H](O)C3)cc2-c2nc(C)nc3[nH]cnc23)cn1` [Example 205, (3S)-1-(6-((6-Methoxy-3-Pyridinyl)Amino)-5-(2-Methyl-9H-Purin-6-yl)-3-Pyridinyl)-3-Pyrrolidinol], in test [1], the Ki was determined as 47 nM. Moreover, the IC50 in test [2] was determined as 384 nM.

As for `Cc1nc(N)cc(-c2cccnc2Nc2cnc(Cl)c(NS(=O)(=O)N(C)C)c2)n1` [Example 375, N-(5-(3-(6-Amino-2-Methylpyrimidin-4-yl)Pyridin-2-Ylamino)-2-Chloropyridin-3-yl)-N,N-Dimethylaminosulfamide], the Ki in test [1] was found to be 152 nM. Also, the IC50 in test [2] is 175 nM.

As to `COc1ccc(Nc2ncc(CNC(C)(C)C)cc2-c2nc(C)nc3[nH]cnc23)cn1` [Example 134, 5-((tert-butylamino)methyl)-N-(6-methoxypyridin-3-yl)-3-(2-methyl-9H-purin-6-yl)pyridin-2-amine], the Ki in test [1] was 217 nM. Moreover, in test [2], the concentration for half-maximal inhibition (IC50) was 1250 nM.

In the case of `COc1ccc(Nc2ncc(C(C)(C)N3CCN(S(C)(=O)=O)CC3)cc2-c2nc(C)nc(N)n2)cn1` [Example 279, 4-(2-(6-Methoxypyridin-3-Ylamino)-5-(2-(4-(Methylsulfonyl)Piperazin-1-yl)Propan-2-yl)Pyridin-3-yl)-6-Methyl-1,3,5-Triazin-2-Amine], in test [1], the Ki amounted to 11 nM. Besides, in test [2], the IC50 worked out at 34 nM.

Regarding `COc1ncc(Nc2ncc(C(C)O)cc2-c2nc(C)nc(N)n2)cc1F` (stereo not drawn) [Example 349, 1-(5-(4-Amino-6-Methyl-1,3,5-Triazin-2-yl)-6-(5-Fluoro-6-Methoxypyridin-3-Ylamino)Pyridin-3-yl)Ethanol], the Ki in test [1] came out at 59 nM. Also, the IC50 in test [2] was found to be 13 nM.

Regarding `COc1ncc(Nc2ncc(C(C)(C)O)nc2-c2cc(N)nc(C)n2)cc1F` [Example 284, 2-(6-(6-Amino-2-Methylpyrimidin-4-yl)-5-(5-Fluoro-6-Methoxypyridin-3-Ylamino)Pyrazin-2-yl)Propan-2-ol], in test [1], the Ki amounted to 31 nM. The IC50 in test [2] was determined as 63 nM.

Regarding `COc1ccc(Nc2ncc(CNC(C)C)cc2-c2nc(C)nc3[nH]cnc23)cn1` [Example 135, 5-((isopropylamino)methyl)-N-(6-methoxypyridin-3-yl)-3-(2-methyl-9H-purin-6-yl)pyridin-2-amine], the Ki in test [1] was 120 nM. Moreover, the IC50 in test [2] was found to be 435 nM.

With `CC(=O)Nc1ccc(Nc2ncc(CN3CCN(S(C)(=O)=O)CC3)cc2-c2nc(C)nc(N)n2)cc1` [Example 268, N-(4-(3-(4-Amino-6-Methyl-1,3,5-Triazin-2-yl)-5-((4-(Methylsulfonyl)Piperazin-1-yl)Methyl)Pyridin-2-Ylamino)Phenyl)Acetamide], in test [1], the Ki was found to be 103 nM. Moreover, the IC50 in test [2] amounted to 739 nM.

Take `Cc1nc(N)nc(-c2cc(C(C)N3CCN(C(=O)N(C)C)CC3)cnc2Nc2ccc3scnc3c2)n1` (stereo not drawn) [Example 289, 4-(1-(5-(4-Amino-6-Methyl-1,3,5-Triazin-2-yl)-6-(Benzo[D]Thiazol-5-Ylamino)Pyridin-3-yl)Ethyl)-N,N-Dimethylpiperazine-1-Carboxamide]: in test [1], the Ki is 60 nM. The IC50 in test [2] worked out at 111 nM.

Regarding `COc1ncc(Nc2ncc(CN3CCOC[C@@H]3C)cc2-c2nc(C)nc(N)n2)cc1F` [Example 315, (S)-4-(2-(5-Fluoro-6-Methoxypyridin-3-Ylamino)-5-((3-Methylmorpholino)Methyl)Pyridin-3-yl)-6-Methyl-1,3,5-Triazin-2-Amine], the Ki in test [1] worked out at 27 nM. For the same compound, the IC50 in test [2] was 31 nM.

With `COc1ncc(Nc2ncc(C(=O)N3CCC(O)CC3)cc2-c2nc(C)nc(N)n2)cc1F` [Example 176, (5-(4-amino-6-methyl-1,3,5-triazin-2-yl)-6-(5-fluoro-6-methoxypyridin-3-ylamino)pyridin-3-yl)(4-hydroxypiperidin-1-yl)methanone], the Ki in test [1] turned out to be 44 nM. In test [2], the IC50 worked out at 134 nM.

Regarding `Cc1nc(N)nc(-c2cccnc2Nc2ccc(F)c(F)c2)n1` [Example 248], the Ki in test [1] came to 442 nM. Besides, the IC50 in test [2] came to 2300 nM.

For the compound `COc1ncc(Nc2ncc(CN3CCN(C(=O)N(C)C)CC3)cc2-c2nc(C)nc(N)n2)cc1F` [Example 159, 4-((5-(4-Amino-6-Methyl-1,3,5-Triazin-2-yl)-6-(5-Fluoro-6-Methoxypyridin-3-Ylamino)Pyridin-3-yl)Methyl)-N,N-Dimethylpiperazine-1-Carboxamide], the Ki in test [1] stood at 11 nM. Also, the IC50 in test [2] was found to be 11 nM.

With `COc1ccc(Nc2ncc(CN3CCN(C(=O)N(C)C)CC3)cc2-c2nc(C)nc3[nH]cnc23)cn1` [Example 87, 4-((6-(6-Methoxypyridin-3-Ylamino)-5-(2-Methyl-9H-Purin-6-yl)Pyridin-3-yl)Methyl)-N,N-Dimethylpiperazine-1-Carboxamide], the Ki in test [1] worked out at 43 nM. For the same compound, the IC50 in test [2] came out at 209 nM.

Consider `COc1ccc(Nc2ncc(-c3ccccn3)cc2-c2nc(C)nc(N)n2)cn1` [Example 172, 5′-(4-Amino-6-Methyl-1,3,5-Triazin-2-yl)-N-(6-Methoxypyridin-3-yl)-2,3′-Bipyridin-6′-Amine], for which, in test [1], the Ki came out at 6 nM. For the same compound, the IC50 in test [2] was 58 nM.

Take `COc1ccc(Nc2ncc(N3CCC[C@@H]3CO)cc2-c2nc(C)nc3[nH]cnc23)cn1` [Example 101, ((2R)-1-(6-(6-Methoxypyridin-3-Ylamino)-5-(2-Methyl-9H-Purin-6-yl)Pyridin-3-yl)Pyrrolidin-2-yl)Methanol]: the Ki in test [1] worked out at 40 nM. Moreover, the IC50 in test [2] is 293 nM.

Consider `Cc1nc(N)nc(-c2cc(CN3CCN(S(C)(=O)=O)CC3)cnc2Nc2ccc3ocnc3c2)n1` [Example 128, N-(3-(4-amino-6-methyl-1,3,5-triazin-2-yl)-5-((4-(methylsulfonyl)piperazin-1-yl)methyl)pyridin-2-yl)benzo[d]oxazol-5-amine], for which the Ki in test [1] amounted to 7 nM. Moreover, in test [2], the IC50 was determined as 21 nM.

In the case of `COc1ccc(Nc2ncc(N3CC[C@@H](O)C3)cc2-c2nc(C)nc3[nH]cnc23)cn1` [Example 206, (3R)-1-(6-((6-Methoxy-3-Pyridinyl)Amino)-5-(2-Methyl-9H-Purin-6-yl)-3-Pyridinyl)-3-Pyrrolidinol], the Ki in test [1] is 68 nM. For the same compound, in test [2], the IC50 turned out to be 387 nM.

Turning to `COc1ncc(Nc2ncc(C(C)N)cc2-c2nc(C)nc(N)n2)cc1F` (stereo not drawn) [Example 327, 4-(5-(1-Aminoethyl)-2-(5-Fluoro-6-Methoxypyridin-3-Ylamino)Pyridin-3-yl)-6-Methyl-1,3,5-Triazin-2-Amine], in test [1], the Ki amounted to 69 nM. Further, the IC50 in test [2] turned out to be 146 nM.

On to `Cc1nc(N)nc(-c2cc([C@H](C)N3CCOCC3)cnc2Nc2cnc(Cl)c(NS(C)(=O)=O)c2)n1` (single isomer, unassigned) [Example 372], for which the Ki in test [1] amounted to 5 nM. The IC50 in test [2] came out at 4 nM.

For `Cc1nc(N)nc(-c2cc(C(C)N3CCOCC3)cnc2Nc2ccc3scnc3c2)n1` (stereo not drawn) [Example 288, N-(3-(4-Amino-6-Methyl-1,3,5-Triazin-2-yl)-5-(1-Morpholinoethyl)Pyridin-2-yl)Benzo[D]Thiazol-5-Amine], the Ki in test [1] came to 45 nM. Further, the 50% inhibitory concentration (IC50) in test [2] amounted to 33 nM.

As to `COc1ccc(Nc2ncc(CNc3ccncc3)cc2-c2nc(C)nc3[nH]cnc23)cn1` [Example 81, N-(6-methoxypyridin-3-yl)-3-(2-methyl-9H-purin-6-yl)-5-((pyridin-4-ylamino)methyl)pyridin-2-amine], in test [1], the Ki was found to be 42 nM. For the same compound, the IC50 in test [2] is 509 nM.

On to `COc1ccc(Nc2ncc(OC(F)F)cc2-c2nc(C)nc(N)n2)cn1` [Example 262, 4-(5-(Difluoromethoxy)-2-(6-Methoxypyridin-3-Ylamino)Pyridin-3-yl)-6-Methyl-1,3,5-Triazin-2-Amine], for which the Ki in test [1] was 47 nM. In addition, the 50% inhibitory concentration (IC50) in test [2] was determined as 180 nM.

In the case of `Cc1nc(N)nc(-c2cc(-c3cnn(C)c3)cnc2Nc2cncc(F)c2)n1` [Example 258, 4-(2-(5-Fluoropyridin-3-Ylamino)-5-(1-Methyl-1H-Pyrazol-4-yl)Pyridin-3-yl)-6-Methyl-1,3,5-Triazin-2-Amine], the Ki in test [1] was 14 nM. The IC50 in test [2] is 192 nM.

Regarding `COc1ccc(CNc2cnc(Nc3ccc(OC)nc3)c(-c3nc(C)nc4[nH]cnc34)c2)cc1` [Example 95, N5-(4-methoxybenzyl)-N2-(6-methoxypyridin-3-yl)-3-(2-methyl-9H-purin-6-yl)pyridine-2,5-diamine], in test [1], the Ki worked out at 77 nM. Also, in test [2], the IC50 is 272 nM.

For `COc1ccc(Nc2ncc(CNCCO)cc2-c2nc(C)nc(N)n2)cn1` [Example 225, 2-((5-(4-Amino-6-Methyl-1,3,5-Triazin-2-yl)-6-(6-Methoxypyridin-3-Ylamino)Pyridin-3-yl)Methylamino)Ethanol], the Ki in test [1] stood at 135 nM. The IC50 in test [2] was 275 nM.

`COc1ccc(Nc2ncc(CNCc3cccnc3)cc2-c2nc(C)nc3[nH]cnc23)cn1` [Example 138, N-(6-methoxypyridin-3-yl)-3-(2-methyl-9H-purin-6-yl)-5-((pyridin-3-ylmethylamino)methyl)pyridin-2-amine]: the Ki in test [1] is 48 nM. In addition, the IC50 in test [2] is 172 nM.

As to `COc1ncc(Nc2ncc(CN3CCOCC3)cc2-c2nc(C)nc(N)n2)cc1NS(C)(=O)=O` [Example 337, N-(5-(3-(4-Amino-6-Methyl-1,3,5-Triazin-2-yl)-5-(Morpholinomethyl)Pyridin-2-Ylamino)-2-Methoxypyridin-3-yl)Methanesulfonamide], the Ki in test [1] turned out to be 98 nM. Also, the IC50 in test [2] is 21 nM.

On to `Cc1nc(N)nc(-c2cc(C(C)N3CCOCC3)cnc2Nc2cnc(Cl)c(NS(C)(=O)=O)c2)n1` (stereo not drawn) [Example 369, N-(5-(3-(4-Amino-6-Methyl-1,3,5-Triazin-2-yl)-5-(1-Morpholinoethyl)Pyridin-2-Ylamino)-2-Chloropyridin-3-yl)Methanesulfonamide], for which the Ki in test [1] came out at 8 nM. Further, the IC50 in test [2] came out at 9 nM.

As for `COc1ncc(Nc2ncc([C@H](C)N3CCOCC3)cc2-c2nc(C)nc(N)n2)cc1F` (single isomer, unassigned) [Example 292], the inhibition constant Ki in test [1] is 44 nM. In addition, the IC50 in test [2] was determined as 20 nM.
